According to patent publication US11225469B2, “Inhibitors of phosphoglycerate dehydrogenase (PHGDH) and uses thereof” (Whitehead Institute for Biomedical Research, priority 2015, dated 2022):
Blank lines part the entries; values can stand above or below the compound they belong to.

Assays:
[1] = system: MDA-MB-231 cells over-expressing PHGDH; assay: Intracellular serine in MDA-MB-231 cells expressing PHGDH, medium lacking serine and glycine (LC-MS); assay type: cell-based, human; details: media lacking serine and glycine
Protocol: To examine target engagement of PHGDH inhibitors in cells, MDA-MB-231 cells that lack detectable expression of PHGDH and MDA-MB-231 cells that stably express full-length human PHGDH (MDA-MB-231-PHGDH) were treated with PHGDH inhibitors in RPMI lacking serine and glycine. A MDA-MB-231 cell line was constructed which expresses PHGDH for comparison against the MDA-MB-231 empty vector line. MDA-MB-231 breast cancer cells were infected with PHGDH-expressing retrovirus.
MDA-MB-231 cells are incapable of synthesizing serine, but the addition of PHGDH permits these cells to synthesize serine. […] Concentrations of serine were determined by comparison with signals of internal standards and calibration curves. PHGDH inhibition reduces steady-state levels of intracellular serine in MDA-MB-231 cells over-expressing PHGDH. Studies were also performed in MDA-MB-468 cells, which over-express PHGDH and are PHGDH-dependent.
Cells were evenly seeded at 400,000 cells per well of a 6-well plate and allowed to attach for 24 hours. Prior to all labeling experiments, cells were pretreated with 10 μM compound or an equivalent volume of DMSO in RPMI for 1 hour. For steady-state metabolite concentrations, cells were washed with PBS prior to pretreatment and treatment in RPMI lacking serine and glycine. For labeling experiments, U-^13C-glucose, U-^13C-serine, or U-^13C-glycine replaced the corresponding unlabeled RPMI component. Cells were washed in 4° C. […] Triplicate identically seeded wells were trypsinzed and analyzed with a Multisizer Coulter Counter (Beckman Coulter) to obtain cell counts and total cell volumes for normalization.
Dried metabolites were resuspended in 100 μL water, centrifuged at 13,000×g at 4° C. for 10 minutes, and the supernatant recovered for analysis. […] Metabolites were monitored using a polarity-switching full-scan method and identified by accurate mass (±20 ppm) and retention time within 15 seconds of a previously run pure standard. […]

[2] = biological target: T1, PHGDH (Homo sapiens (Human), UniProt O43175); assay: PHGDH inhibition, coupled assay with PSAT1/PSPH and diaphorase/resazurin readout; assay type: biochemical; details: Table E9; mixture with PSAT1, PSPH; diaphorase/resazurin reporter
T1 sequence (O43175 whole entry): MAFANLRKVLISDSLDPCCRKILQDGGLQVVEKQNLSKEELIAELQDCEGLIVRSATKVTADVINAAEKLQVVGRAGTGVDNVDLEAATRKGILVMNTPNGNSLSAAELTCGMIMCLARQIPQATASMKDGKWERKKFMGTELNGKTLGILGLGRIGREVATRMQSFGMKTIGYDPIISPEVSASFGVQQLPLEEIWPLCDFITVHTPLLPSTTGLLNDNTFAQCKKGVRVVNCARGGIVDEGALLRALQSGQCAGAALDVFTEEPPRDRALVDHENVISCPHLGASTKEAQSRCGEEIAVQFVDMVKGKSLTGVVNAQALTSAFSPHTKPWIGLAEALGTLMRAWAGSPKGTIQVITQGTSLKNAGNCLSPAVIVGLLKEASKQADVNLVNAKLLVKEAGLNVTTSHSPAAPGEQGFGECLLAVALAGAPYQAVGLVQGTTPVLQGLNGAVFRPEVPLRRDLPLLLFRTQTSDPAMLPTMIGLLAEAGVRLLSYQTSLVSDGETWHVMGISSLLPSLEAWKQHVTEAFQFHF

[3] = biological target: ALDH (Homo sapiens (Human), UniProt P00352); assay: Counter-screen against ALDH; assay type: biochemical; details: Table E11
Sequence of ALDH (P00352 whole entry): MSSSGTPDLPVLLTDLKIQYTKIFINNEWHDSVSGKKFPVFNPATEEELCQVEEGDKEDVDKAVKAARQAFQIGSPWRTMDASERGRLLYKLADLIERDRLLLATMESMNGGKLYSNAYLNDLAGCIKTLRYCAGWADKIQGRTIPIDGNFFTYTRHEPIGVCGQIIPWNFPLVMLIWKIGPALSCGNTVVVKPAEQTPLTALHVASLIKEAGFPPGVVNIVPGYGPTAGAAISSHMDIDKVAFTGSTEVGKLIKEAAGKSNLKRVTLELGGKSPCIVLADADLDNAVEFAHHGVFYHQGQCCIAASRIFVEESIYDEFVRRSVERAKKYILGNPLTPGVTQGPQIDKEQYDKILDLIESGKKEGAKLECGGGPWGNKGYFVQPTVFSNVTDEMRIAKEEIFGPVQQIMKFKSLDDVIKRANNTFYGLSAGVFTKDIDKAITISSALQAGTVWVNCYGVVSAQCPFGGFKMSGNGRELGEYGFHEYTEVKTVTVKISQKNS

[4] = biological target: T1, PHGDH; assay: Differential scanning fluorimetry; assay type: binding
Protocol: Destabilization has been previously observed in the specific binding of small molecules to their protein targets (see, e.g., Hamiaux, C. et al. “DAD2 is an α/β hydrolase likely to be involved in the perception of the plant branching hormone, strigolactone.” Curr Biol 22, 2032-2036 (2012)).
Differential scanning fluorimetry assays were carried out in 20 mM TEA pH 8, 100 mM NaCl, 1× SYPRO Orange (Sigma), 2 μM PHGDH in a volume of 10 μL. Unfolding was monitored using a LightCycler 480 II real-time PCR instrument (λex=465 nm and λem=580 nm) over a linear 20 to 85° C. gradient. Plots of the first derivative of fluorescence vs. temperature were generated in LightCycler software.

[5] = system: MDA-MB-468 cells; assay: Metabolite profiling and 13C labeling in MDA-MB-468 cells (LC-MS); assay type: cell-based, human; details: washout
Protocol: To track the effects of PHGDH inhibition on glycolysis and serine biosynthesis, MDA-MB-231 and MDA-MB-468 cells were fed universally labeled carbon-13 glucose and the intracellular ratio of labeled to unlabeled glucose was measured at the times indicated in FIG. 3E.
Cells were evenly seeded at 400,000 cells per well of a 6-well plate and allowed to attach for 24 hours. Prior to all labeling experiments, cells were pretreated with 10 μM compound or an equivalent volume of DMSO in RPMI for 1 hour. For steady-state metabolite concentrations, cells were washed with PBS prior to pretreatment and treatment in RPMI lacking serine and glycine. For labeling experiments, U-^13C-glucose, U-^13C-serine, or U-^13C-glycine replaced the corresponding unlabeled RPMI component. Cells were washed in 4° C. 0.9% (w/v) NaCl in LCMS-grade water and extracted in 1 mL/well of 80:20 (v/v) methanol:water with 0.01 ng/mL Val-d8 and Phe-d8 as internal extraction standards. The extraction solvent was dried under nitrogen gas and metabolite samples were stored at −80° C. until analysis. Triplicate identically seeded wells were trypsinzed and analyzed with a Multisizer Coulter Counter (Beckman Coulter) to obtain cell counts and total cell volumes for normalization.
Dried metabolites were resuspended in 100 μL water, centrifuged at 13,000×g at 4° C. for 10 minutes, and the supernatant recovered for analysis. Chromatographic separation was achieved by injecting 1 pi of sample on a SeQuant ZIC-pHILIC Polymeric column (2.1 3 150 mm […], EMD Millipore). Flow rate was set to 0.1 ml per minute, column compartment was set to 25° C., and autosampler sample tray was set to 4° C. Mobile Phase A consisted of 20 mM ammonium carbonate, 0.1% ammonium hydroxide. Mobile Phase B was 100% acetonitrile. The mobile phase gradient (% B) was as follows: 0 min 80%, 30 min 20%, 31 min 80%, 42 min 80%. All mobile phase was introduced into the ionization source set with the following parameters: sheath gas=40, auxiliary gas=15, sweep gas=5, spray voltage=−3.1 kV or +3.0 kV, capillary temperature=275° C., S-lens RF level=40, probe temperature=350° C. Metabolites were monitored using a polarity-switching full-scan method and identified by accurate mass (±20 ppm) and retention time within 15 seconds of a previously run pure standard. Metabolite peaks were identified and integrated with Xcalibur v.2.2 software (Thermo Fisher Scientific) and normalized to internal standard and to total cell volume, m/z ratios for stable isotopically labeled metabolites were obtained from IsoMETLIN (See, e.g., Cho, K. et al. “isoMETLIN: a database for isotope-based metabolomics.” Anal Chem 86, 9358-9361 (2014)) and corrected for natural abundance.

[6] = biological target: HSD17B4 (Homo sapiens (Human), UniProt P51659); assay: Counter-screen against HSD17B4; assay type: biochemical; details: Table E11
Sequence of HSD17B4 (P51659 whole entry, species assumed): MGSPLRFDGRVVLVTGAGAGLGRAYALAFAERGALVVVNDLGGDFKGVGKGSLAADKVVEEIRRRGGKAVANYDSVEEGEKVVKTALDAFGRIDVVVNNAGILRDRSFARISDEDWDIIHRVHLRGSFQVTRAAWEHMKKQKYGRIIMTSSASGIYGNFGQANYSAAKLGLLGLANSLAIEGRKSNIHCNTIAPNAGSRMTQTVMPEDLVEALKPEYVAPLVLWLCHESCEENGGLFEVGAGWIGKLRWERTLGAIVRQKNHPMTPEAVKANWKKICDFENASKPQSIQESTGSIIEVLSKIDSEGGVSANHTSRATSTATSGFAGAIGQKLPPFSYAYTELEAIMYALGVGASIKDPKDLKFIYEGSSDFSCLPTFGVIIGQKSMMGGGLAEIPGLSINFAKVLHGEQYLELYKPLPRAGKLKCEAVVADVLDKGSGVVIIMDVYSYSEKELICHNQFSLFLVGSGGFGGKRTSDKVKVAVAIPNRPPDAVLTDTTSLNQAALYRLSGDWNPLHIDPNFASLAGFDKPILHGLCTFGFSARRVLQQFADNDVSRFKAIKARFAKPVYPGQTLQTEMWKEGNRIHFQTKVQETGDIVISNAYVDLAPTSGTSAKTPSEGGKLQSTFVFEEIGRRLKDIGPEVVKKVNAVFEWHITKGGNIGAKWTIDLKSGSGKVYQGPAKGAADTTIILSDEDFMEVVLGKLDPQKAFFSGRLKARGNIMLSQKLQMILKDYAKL

[7] = system: panel of other dehydrogenases; assay: Panel of other dehydrogenases; assay type: biochemical
[8] = biological target: GAPDH (Homo sapiens (Human), UniProt P04406); assay: Counter-screen against GAPDH; assay type: biochemical; details: Table E11
Sequence of GAPDH (P04406 whole entry): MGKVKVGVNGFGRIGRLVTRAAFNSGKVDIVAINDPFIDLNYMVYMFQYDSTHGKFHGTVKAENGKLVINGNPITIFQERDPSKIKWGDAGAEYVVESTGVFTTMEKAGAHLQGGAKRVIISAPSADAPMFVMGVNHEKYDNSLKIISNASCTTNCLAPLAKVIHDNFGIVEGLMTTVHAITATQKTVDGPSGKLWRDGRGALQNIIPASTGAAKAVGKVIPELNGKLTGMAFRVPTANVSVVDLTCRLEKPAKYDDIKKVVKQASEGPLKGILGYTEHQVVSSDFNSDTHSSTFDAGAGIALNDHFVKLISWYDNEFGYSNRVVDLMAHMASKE
Protocol: GAPDH substrate buffer contained 210 mM Tris pH 7.4, 2.5 mM NaH2PO4 pH 7.4, 2 mM DL-Glyceraldehyde 3-phosphate, 1.75 mM MgCl2, 0.01 mM NAD+, 0.11 mM resazurin, 0.2 mg/mL BSA, and 0.01% Tween-20. GAPDH enzyme buffer contained 50 mM Tris pH 7.4, 100 mM NaCl, 0.02 mM TCEP, 0.01 mM EDTA, 0.1 mg/mL BSA, 0.42 mg/mL diaphorase, and 2.5 nM GAPDH. The GAPDH, GPD1, and GPD1L assays were run in 384-well plates using the same protocol and readout as the PHGDH assay. […] GPD1 enzyme buffer contained 50 mM Tris pH 7.4, 100 mM NaCl, 0.08 mM TCEP, 0.4 mg/mL BSA, 0.03 μM EDTA, and 0.8 nM GPD1. 70 μL of substrate buffer were mixed with 10 μL enzyme buffer. GPD1L substrate buffer contained 200 mM Tris pH 7.4, 0.05 mM sn-G3-P, 2 mM MgCl2, 0.04 mM NAD+, 0.11 mM resazurin, 0.1 mg/mL BSA, and 0.02% Tween-20. GPD1L enzyme buffer contained 50 mM Tris pH 7.4, 100 mM NaCl, 0.02 mM TCEP, 0.42 mg/mL diaphorase, 0.1 mg/mL BSA, 0.008 μM EDTA, and 16 nM GPD1L. 40 μL of substrate buffer were mixed with 40 μL of enzyme buffer.
The GAPDH and GPD1L assays were read using the same protocol as the PHGDH assay. The GPD1 assay was read using loss of NADH fluorescence (λex=340 nm and λem=460 nm).

[9] = system: panel of 168 GPCRs; assay: Cross-reactivity in a panel of 168 GPCRs

IC50 [2]: ≥ 20 µM
Compound: Cc1cc(C)nc(NC(=S)N2CCN(c3ccncc3)CC2)c1 [Compound 71, N-(4,6-dimethylpyridin-2-yl)-4-(pyridin-4-yl)piperazine-1-carbothioamide]
intracellular serine levels [1]: not reduced

IC50 [3]: 10 to 50 µM
Tm of PHGDH [4]: decreased
IC50 [6]: ≥ 100 µM
IC50 [8]: ≥ 100 µM
Compound: Cc1cc(C)nc(NC(=S)N2CCN(c3ccc(C(F)(F)F)cn3)CC2)c1 [Compound 72, N-(4,6-dimethylpyridin-2-yl)-4-(5-(trifluoromethyl)pyridin-2-yl)piperazine-1-carbothioamide]
intracellular serine levels [1]: decreased
reversibility of inhibition of serine synthesis in cells [5]: reversible
activity against a panel of other dehydrogenases [7]: inactive
cross-reactivity, modulation of activity [9]: < 30%

IC50 [2]: < 5 µM
Compound: Cc1cc(C)nc(NC(=S)N2CCN(CC(C)(C)C)CC2)c1 [Compound 269]

IC50 [2]: 5 to 10 µM
Compound: Cc1cc(C)nc(NC(=S)N2CCN(c3ccc(C(F)(F)F)cc3C(F)(F)F)CC2)c1 [Compound 209]
